Laboratory results: US10238642B2, “Methods for treating neurogenic orthostatic hypotension” (Theravance Biopharma R&D IP, LLC, priority 2016, dated 2019)

Experiments:
anesthetized rats = assay: Cardiovascular model in anesthetized rat: intrinsic effect on MAP and HR; assay type: in vivo; settings: IP
Method: These studies were conducted to assess the effect of a single administration of 4-[2-(2,4,6-trifluorophenoxymethyl)phenyl]piperidine on heart rate (HR) and mean arterial pressure (MAP) in anesthetized rats.
Normotensive male Sprague-Dawley rats weighing between 250-350 g were anesthetized with an intraperitoneal injection (IP) of thiobutabarbital (Inactin). All animals were kept under complete anesthesia (i.e., absence of response to toe pinch test) for the surgery and for the duration of the study. The right common carotid artery and jugular vein were isolated and catheterized. The trachea was intubated to keep the airway open during the study. After completion of surgery, the arterial catheter was connected to a pressure transducer and baseline blood pressure [Systolic (SBP), Mean Arterial (MAP) and Diastolic (DBP)] and heart rate (HR) were recorded using the Notocord-HEM data acquisition system. Following at least 60 min of baseline (i.e., the last 10 min was stable), vehicle (10% Tween20, 2 mL/kg, IP) was administered and any potential effect was monitored for at least 10 min. After this period, rats were injected with either vehicle or 4-[2-(2,4,6-trifluorophenoxymethyl)phenyl]piperidine ([…], 2 mL/kg, IP) and changes in MAP and HR were monitored for 25 min. […]

[1] = Plasma protein binding, rat; assay type: in vitro ADME
human recombinant NET = target: T1, human recombinant NET (Homo sapiens, UniProt P23975); assay: [3H]-NE neurotransmitter uptake inhibition in HEK293-hNET cells; assay type: cell-based; settings: human transporters
T1 construct: expressed in transfected cells; host or cells: HEK293
T1 sequence (P23975 whole entry): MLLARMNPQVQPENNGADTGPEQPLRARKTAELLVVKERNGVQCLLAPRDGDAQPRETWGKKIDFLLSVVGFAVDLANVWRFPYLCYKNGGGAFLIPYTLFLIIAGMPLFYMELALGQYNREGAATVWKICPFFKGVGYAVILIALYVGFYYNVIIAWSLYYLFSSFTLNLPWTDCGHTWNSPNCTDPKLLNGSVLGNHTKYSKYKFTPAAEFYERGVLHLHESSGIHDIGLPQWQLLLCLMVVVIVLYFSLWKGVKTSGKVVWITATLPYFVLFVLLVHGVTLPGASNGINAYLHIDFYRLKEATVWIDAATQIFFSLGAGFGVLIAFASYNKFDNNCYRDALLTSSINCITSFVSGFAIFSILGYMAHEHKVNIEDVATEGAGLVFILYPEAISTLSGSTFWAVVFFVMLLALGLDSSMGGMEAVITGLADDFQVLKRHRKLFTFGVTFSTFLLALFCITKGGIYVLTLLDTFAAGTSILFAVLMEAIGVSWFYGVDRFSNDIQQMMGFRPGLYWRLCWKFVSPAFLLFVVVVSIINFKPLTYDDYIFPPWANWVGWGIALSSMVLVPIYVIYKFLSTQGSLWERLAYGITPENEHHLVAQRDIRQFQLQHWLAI
From the text: The in vitro pharmacology of 4-[2-(2,4,6-trifluorophenoxymethyl)phenyl]-piperidine at human recombinant and rat native monoamine transporters was characterized as described in Smith et al., Inter. J. Neuropsychopharmcol. (2015) 1-11; and Tsuruda et al., J. Pharmacol. Toxicol. Meth. (2010) 61:192-204. See also, e.g., U.S. Pat. No. 8,304,432 B2 and U.S. Pat. No. 8,304,433 B2. Radioligands were sourced commercially (Perkin Elmer LifeSciences or GE Healthcare Life Sciences).
Briefly, membranes prepared from HEK293 (Human Embryonic Kidney 293) or CHO-K1 (Chinese Hamster Ovary-K1) cells stably transfected with human recombinant SERT (HEK293-hSERT), NET (HEK293-hNET), or DAT (CHO-KT-hDAT) were incubated for 1 hr at 22° C. in the absence, or presence, of 4-[2-(2,4,6-trifluorophenoxymethyl)phenyl]piperidine and [^3H]-citalopram (1.0 nM) for SERT, [^3H]-nisoxetine (2.0 nM) for NET, and [^3H]-WIN35428 (3.0 nM) for DAT in 50 mM Tris-HCl, 120 mM NaCl, 5 mM KCl, 0.025% BSA, 100 μM ascorbic acid, pH 7.4. Rat cortical membrane preparations were incubated with [^3H]-citalopram (2.0 nM) for SERT or [3H]-nisoxetine (4.0 nM) for NET for 1 hr at 22° C. […] Binding and uptake assays were terminated by rapid filtration and radioactivity determined by liquid scintillation spectroscopy.

CYP2D6 = CYP2D6 (Homo sapiens, UniProt P10635); settings: cited from earlier work
Sequence of CYP2D6 (P10635 whole entry): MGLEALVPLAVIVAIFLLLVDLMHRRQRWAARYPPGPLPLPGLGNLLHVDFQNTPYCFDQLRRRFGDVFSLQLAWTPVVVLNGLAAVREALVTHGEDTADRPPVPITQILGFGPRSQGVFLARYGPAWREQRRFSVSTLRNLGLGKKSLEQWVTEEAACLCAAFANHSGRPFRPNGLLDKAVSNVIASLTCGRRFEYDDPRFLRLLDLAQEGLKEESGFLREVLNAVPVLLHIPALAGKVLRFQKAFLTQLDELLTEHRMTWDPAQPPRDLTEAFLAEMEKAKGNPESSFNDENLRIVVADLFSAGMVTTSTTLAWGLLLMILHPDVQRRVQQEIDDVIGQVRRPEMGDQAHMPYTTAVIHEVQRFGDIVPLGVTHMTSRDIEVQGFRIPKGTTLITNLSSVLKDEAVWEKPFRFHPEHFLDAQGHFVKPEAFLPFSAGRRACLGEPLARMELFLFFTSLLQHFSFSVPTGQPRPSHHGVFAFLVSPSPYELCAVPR

CYP1A2 = target: T2, CYP1A2 (Homo sapiens, UniProt P05177); settings: cited from earlier work
T2 sequence (P05177 1-516): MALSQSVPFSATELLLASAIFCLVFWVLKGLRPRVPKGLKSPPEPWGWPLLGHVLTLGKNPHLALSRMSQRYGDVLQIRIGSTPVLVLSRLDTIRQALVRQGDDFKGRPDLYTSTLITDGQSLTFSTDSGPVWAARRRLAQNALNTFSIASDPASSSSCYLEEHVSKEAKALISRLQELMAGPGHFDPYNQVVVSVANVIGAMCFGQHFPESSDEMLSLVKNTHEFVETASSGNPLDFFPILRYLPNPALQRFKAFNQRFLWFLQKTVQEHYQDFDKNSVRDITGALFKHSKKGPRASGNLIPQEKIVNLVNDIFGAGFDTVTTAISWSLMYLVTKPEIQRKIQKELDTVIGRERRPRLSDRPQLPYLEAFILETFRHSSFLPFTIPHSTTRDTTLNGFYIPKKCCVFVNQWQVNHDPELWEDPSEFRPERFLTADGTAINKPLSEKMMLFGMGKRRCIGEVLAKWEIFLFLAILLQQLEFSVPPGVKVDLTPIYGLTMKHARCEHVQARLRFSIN

## Fc1cc(F)c(OCc2ccccc2C2CCNCC2)c(F)c1 [4-[2-(2,4,6-trifluorophenoxymethyl)phenyl]piperidine]
Anesthetized rats
  HR EC25 (free plasma concentration that produced a change in HR of 25 bpm): 8.6 nM
  MAP EC10 (free plasma concentration that produced a change in MAP of 10 mm Hg): 101.4 nM
[1]
  fraction unbound: 0.098
Human recombinant NET
  higher potency for inhibition of NET over SERT: 4 fold
CYP2D6
  reduction of metabolism by chemical inhibition of CYP2D6: 7%
CYP1A2
  reduction of metabolism by chemical inhibition of CYP1A2: 25%
